Where a name gives a salt, the structure may show the parent alone.
SMILES: CN(C)CCCNCc1ccc(-c2cc(-c3ccc(CNCCCN(C)C)cc3)c3ccccc3n2)cc1 (as salt: (cooh)2) [Compound 1b, 2,4-Bis{4-[(3-dimethylaminopropyl)aminomethyl]phenyl}quinoline]
- melting point: 244 to 246 °C

SMILES: CN(C)CCNCc1ccc(-c2cc(-c3ccc(CNCCN(C)C)cc3)c3ccccc3n2)cc1 (as salt: (cooh)2) [Compound 1c, 2,4-Bis{4-[(2-dimethylaminoethyl)aminomethyl]phenyl}quinoline]
- melting point: 229 to 231 °C

SMILES: CN1CCN(CCCCNCc2ccc(-c3cc(-c4ccc(CNCCCCN5CCN(C)CC5)cc4)c4ccccc4n3)cc2)CC1 (as salt: (cooh)2) [Compound 1d, 2,4-Bis{4-[(4–(4-methylpiperazin-1-yl)butyl)aminomethyl]phenyl}quinoline]
- melting point: 225 to 227 °C

SMILES: CN1CCN(CCCNCc2ccc(-c3cc(-c4ccc(CNCCCN5CCN(C)CC5)cc4)c4ccccc4n3)cc2)CC1 (as salt: (cooh)2) [Compound 1e, 2,4-Bis{4-[(3–(4-methylpiperazin-1-yl)propyl)aminomethyl]phenyl}quinoline]
- melting point: 249 to 251 °C

SMILES: CN1CCN(CCNCc2ccc(-c3cc(-c4ccc(CNCCN5CCN(C)CC5)cc4)c4ccccc4n3)cc2)CC1 (as salt: (cooh)2) [Compound 1f, 2,4-Bis{4-[(2–(4-methylpiperazin-1-yl)ethyl)aminomethyl]phenyl}quinoline]
- melting point: 240 to 242 °C

SMILES: c1ccc2c(-c3ccc(CNCCCN4CCOCC4)cc3)cc(-c3ccc(CNCCCN4CCOCC4)cc3)nc2c1 (as salt: (cooh)2) [Compound 1g, 2,4-Bis{4-[(3-morpholinopropyl)aminomethyl]phenyl}quinoline]
- melting point: 202 to 204 °C

SMILES: c1ccc2c(-c3ccc(CNCCN4CCOCC4)cc3)cc(-c3ccc(CNCCN4CCOCC4)cc3)nc2c1 (as salt: (cooh)2) [Compound 1h, 2,4-Bis{4-[(2-morpholinoethyl)aminomethyl]phenyl}quinoline]
- melting point: 235 to 237 °C

SMILES: COc1ccc2nc(-c3ccc(CNCCCCN(C)C)cc3)cc(-c3ccc(CNCCCCN(C)C)cc3)c2c1 (as salt: (cooh)2) [Compound 1i, 6-Methoxy-2,4-bis{4-[(4-dimethylaminobutyl)aminomethyl]phenyl}quinoline]
- melting point: 227 to 229 °C

SMILES: COc1ccc2nc(-c3ccc(CNCCCN(C)C)cc3)cc(-c3ccc(CNCCCN(C)C)cc3)c2c1 (as salt: (cooh)2) [Compound 1j, 6-Methoxy-2,4-bis{4-[(3-dimethylaminopropyl)aminomethyl]phenyl}quinoline]
- melting point: 224 to 226 °C

SMILES: COc1ccc2nc(-c3ccc(CNCCCCN4CCN(C)CC4)cc3)cc(-c3ccc(CNCCCCN4CCN(C)CC4)cc3)c2c1 (as salt: (cooh)2) [Compound 1k, 6-Methoxy-2,4-bis{4-[(4–(4-methylpiperazin-1-yl)butyl)aminomethyl]phenyl}quinoline]
- melting point: 235 to 237 °C

SMILES: COc1ccc2nc(-c3ccc(CNCCCN4CCN(C)CC4)cc3)cc(-c3ccc(CNCCCN4CCN(C)CC4)cc3)c2c1 (as salt: (cooh)2) [Compound 1l, 6-Methoxy-2,4-bis{4-[(3–(4-methylpiperazin-1-yl)propyl)aminomethyl]phenyl}quinoline]
- melting point: 223 to 225 °C

SMILES: COc1ccc2c(-c3ccc(CNCCCCN(C)C)cc3)cc(-c3ccc(CNCCCCN(C)C)cc3)nc2c1 (as salt: (cooh)2) [Compound 1m, 7-Methoxy-2,4-bis{4-[(4-dimethylaminobutyl)aminomethyl]phenyl}quinoline]
- melting point: 208 to 210 °C

SMILES: COc1ccc2c(-c3ccc(CNCCCN(C)C)cc3)cc(-c3ccc(CNCCCN(C)C)cc3)nc2c1 (as salt: (cooh)2) [Compound 1n, 7-Methoxy-2,4-bis{4-[(3-dimethylaminopropyl)aminomethyl]phenyl}quinoline]
- melting point: 237 to 239 °C

SMILES: COc1ccc2c(-c3ccc(CNCCCCN4CCN(C)CC4)cc3)cc(-c3ccc(CNCCCCN4CCN(C)CC4)cc3)nc2c1 (as salt: (cooh)2) [Compound 1o, 7-Methoxy-2,4-bis{4-[(4–(4-methylpiperazin-1-yl)butyl)aminomethyl]phenyl}quinoline]
- melting point: 237 to 239 °C

SMILES: COc1ccc2c(-c3ccc(CNCCCN4CCN(C)CC4)cc3)cc(-c3ccc(CNCCCN4CCN(C)CC4)cc3)nc2c1 (as salt: (cooh)2) [Compound 1p, 7-Methoxy-2,4-bis{4-[(3–(4-methylpiperazin-1-yl)propyl)aminomethyl]phenyl}quinoline]
- melting point: 245 to 247 °C

SMILES: CN(C)CCCNCc1cccc(-c2cc(-c3cccc(CNCCCN(C)C)c3)c3ccccc3n2)c1 (as salt: (cooh)2) [Compound 1q, 2,4-Bis{3-[(3-dimethylaminopropyl)aminomethyl]phenyl}quinoline]
- melting point: 243 to 245 °C

SMILES: CN1CCN(CCCNCc2cccc(-c3cc(-c4cccc(CNCCCN5CCN(C)CC5)c4)c4ccccc4n3)c2)CC1 (as salt: (cooh)2) [Compound 1r, 2,4-Bis{3-[(3–(4-methylpiperazin-1-yl)propyl)aminomethyl]phenyl}quinoline]
- melting point: 237 to 239 °C

SMILES: c1cc(CNCCCN2CCOCC2)cc(-c2cc(-c3cccc(CNCCCN4CCOCC4)c3)c3ccccc3n2)c1 (as salt: (cooh)2) [Compound 1s, 2,4-Bis{3-[(3-morpholinopropyl)aminomethyl]phenyl}quinoline]
- melting point: 221 to 223 °C

SMILES: c1cc(CNCCN2CCOCC2)cc(-c2cc(-c3cccc(CNCCN4CCOCC4)c3)c3ccccc3n2)c1 (as salt: (cooh)2) [Compound 1t, 2,4-Bis{3-[(2-morpholinoethyl)aminomethyl]phenyl}quinoline]
- melting point: 225 to 227 °C

SMILES: CN(C)CCCCNCc1ccc(-c2cc3ccccc3c(-c3ccc(CNCCCCN(C)C)cc3)n2)cc1 (as salt: (cooh)2) [Compound 2a, 1,3-Bis{4-[(4-dimethylaminobutyl)aminomethyl]phenyl}isoquinoline]
- melting point: 184 to 186 °C

SMILES: CN(C)CCCNCc1ccc(-c2cc3ccccc3c(-c3ccc(CNCCCN(C)C)cc3)n2)cc1 (as salt: (cooh)2) [Compound 2b, 1,3-Bis{4-[(3-dimethylaminopropyl)aminomethyl]phenyl}isoquinoline]
- melting point: 186 to 188 °C

SMILES: CN1CCN(CCCCNCc2ccc(-c3cc4ccccc4c(-c4ccc(CNCCCCN5CCN(C)CC5)cc4)n3)cc2)CC1 (as salt: (cooh)2) [Compound 2c, 1,3-Bis{4-[(4–(4-methylpiperazin-1-yl)butyl)aminomethyl]phenyl}isoquinoline]
- melting point: 181 to 183 °C

SMILES: CN1CCN(CCCNCc2ccc(-c3cc4ccccc4c(-c4ccc(CNCCCN5CCN(C)CC5)cc4)n3)cc2)CC1 (as salt: (cooh)2) [Compound 2d, 1,3-Bis{4-[(3–(4-methylpiperazin-1-yl)propyl)aminomethyl]phenyl}isoquinoline]
- melting point: 217 to 219 °C

SMILES: COc1ccc2cc(-c3ccc(CNCCCCN(C)C)cc3)nc(-c3ccc(CNCCCCN(C)C)cc3)c2c1 (as salt: (cooh)2) [Compound 2e, 7-Methoxy-1,3-bis{4-[(4-dimethylaminobutyl)aminomethyl]phenyl}isoquinoline]
- melting point: 157 to 159 °C

SMILES: COc1ccc2cc(-c3ccc(CNCCCN(C)C)cc3)nc(-c3ccc(CNCCCN(C)C)cc3)c2c1 (as salt: (cooh)2) [Compound 2f, 7-Methoxy-1,3-bis{4-[(3-dimethylaminopropyl)aminomethyl]phenyl}isoquinoline]
- melting point: 178 to 180 °C

SMILES: COc1ccc2cc(-c3ccc(CNCCCCN4CCN(C)CC4)cc3)nc(-c3ccc(CNCCCCN4CCN(C)CC4)cc3)c2c1 (as salt: (cooh)2) [Compound 2g, 7-Methoxy-1,3-bis{4-[(4–(4-methylpiperazin-1-yl)butyl)aminomethyl]phenyl}isoquinoline]
- melting point: 172 to 174 °C

SMILES: COc1ccc2cc(-c3ccc(CNCCCN4CCN(C)CC4)cc3)nc(-c3ccc(CNCCCN4CCN(C)CC4)cc3)c2c1 (as salt: (cooh)2) [Compound 2h, 7-Methoxy-1,3-bis{4-[(3–(4-methylpiperazin-1-yl)propyl)aminomethyl]phenyl}isoquinoline]
- melting point: 195 to 197 °C

SMILES: COc1ccc2c(-c3ccc(CNCCCCN(C)C)cc3)nc(-c3ccc(CNCCCCN(C)C)cc3)cc2c1 (as salt: (cooh)2) [Compound 2i, 6-Methoxy-1,3-bis{4-[(4-dimethylaminobutyl)aminomethyl]phenyl}isoquinoline]
- melting point: 135 to 137 °C

SMILES: COc1ccc2c(-c3ccc(CNCCCN(C)C)cc3)nc(-c3ccc(CNCCCN(C)C)cc3)cc2c1 (as salt: (cooh)2) [Compound 2j, 6-Methoxy-1,3-bis{4-[(3-dimethylaminopropyl)aminomethyl]phenyl}isoquinoline]
- melting point: 171 to 173 °C

SMILES: COc1ccc2c(-c3ccc(CNCCCCN4CCN(C)CC4)cc3)nc(-c3ccc(CNCCCCN4CCN(C)CC4)cc3)cc2c1 (as salt: (cooh)2) [Compound 2k, 6-Methoxy-1,3-bis{4-[(4–(4-methylpiperazin-1-yl)butyl)aminomethyl]phenyl}isoquinoline]
- melting point: 216 to 218 °C

SMILES: COc1ccc2c(-c3ccc(CNCCCN4CCN(C)CC4)cc3)nc(-c3ccc(CNCCCN4CCN(C)CC4)cc3)cc2c1 (as salt: (cooh)2) [Compound 2l]
- melting point: 226 to 228 °C

SMILES: CN(C)CCCCNCc1ccc(-c2nc(-c3ccc(CNCCCCN(C)C)cc3)c3ccccc3n2)cc1 (as salt: (cooh)2) [Compound 3a, 2,4-Bis{4-[(4-dimethylaminobutyl)aminomethyl]phenyl}quinazoline]
- melting point: 153 to 155 °C

SMILES: CN(C)CCCNCc1ccc(-c2nc(-c3ccc(CNCCCN(C)C)cc3)c3ccccc3n2)cc1 (as salt: (cooh)2) [Compound 3b, 2,4-Bis{4-[(3-dimethylaminopropyl)aminomethyl]phenyl}quinazoline]
- melting point: 203 to 205 °C

SMILES: CN(C)CCNCc1ccc(-c2nc(-c3ccc(CNCCN(C)C)cc3)c3ccccc3n2)cc1 (as salt: (cooh)2) [Compound 3c, 2,4-Bis{4-[(2-dimethylaminoethyl)aminomethyl]phenyl}quinazoline]
- melting point: 203 to 205 °C

SMILES: CN1CCN(CCCCNCc2ccc(-c3nc(-c4ccc(CNCCCCN5CCN(C)CC5)cc4)c4ccccc4n3)cc2)CC1 (as salt: (cooh)2) [Compound 3d, 2,4-Bis{4-[(4–(4-methylpiperazin-1-yl)butyl)aminomethyl]phenyl}quinazoline]
- melting point: 223 to 225 °C
